“And” between values parts separate entries of the source, which are not always exact repeats. Identical values can stand only once. Like-named read-outs stand apart in the source and are kept apart here.
Legend:
[1] = system: chloroquine sensitive HB3 strain of P. falciparum; test: In vitro antiplasmodial assay (Pico-Green growth inhibition); type: cell-based, Plasmodium falciparum; conditions: for IC50: Plasmodium falciparum; for antiplasmodial activity against P. falciparum (in words): structure-activity discussion; for P. falciparum SI, Selectivity Index (CC50/IC50): CC50 HUVEC / IC50 P. falciparum
Protocol: In vitro antiplasmodial activity was performed by culturing human erythrocytes and infecting them with P. falciparum, as reported by Trager and Jensen ([1976]). Briefly, the chloroquine sensitive HB3 strain of P. falciparum-infected O + erythrocytes was cultured in RPMI 1640 medium supplemented with 10% human serum (from O + blood) at a hematocrit of 2% erythrocytes at 37 °C with a gas mixture containing 90% N2, 5% CO2, and 5% O2. Parasites were synchronized with 5% D-sorbitol (Lambros and Vanderberg [1979]). P. falciparum growth inhibition bioassays were performed with the procedure as described by Corbett et al. ([2004]), which used Pico-Green, a double stranded-DNA fluorescent dye to test the effect of compounds.

P. tricornutum Bohlin = test: Diatom growth inhibition assay (antialgal activity); type: cell-based, Phaeodactylum tricornutum Bohlin; conditions: 48 h, read-out: EC50 P. tricornutum
Protocol: (§1) The antialgal activity against the microalgae P. tricornutum Bohlin, C. vulgaris, C. socialis, N. laevissima, and N. exigua was evaluated by the method of Ortlepp et al. ([2008]). Briefly, the microalgae were grown in sterilized BG11 medium under light intensity of 2500 lx and 12 h: 12 h light: dark cycle at temperature of 20 ℃. The microalgae were grown to reach the logarithmic phase (approximately 5 × 10^5 cells/ml), which were used for microalgae growth inhibition assay. The compounds 1–71 were first dissolved in a small amount of DMSO and then diluted with 0.22 μm of filtered seawater (FSW) to achieve a range of concentrations from 0.625 to 50 μg/ml. Ten microliters of the compound solution was added to multiwell Petri dishes containing a 1-mL suspension of the microalgae (approximately 12 × 10^4 cells/ml). FSW with DMSO was used as a negative control, and solutions of SeaNine 211 in seawater were used as positive controls. After the plates were incubated for 48 h (16 ± 1 ℃) under continuous light, the FSW with non-attached microalgae was removed. The amount of chlorophyll a in attached microalgae was determined with a spectrophotometer (Beckman, model DU650, USA). Then the EC50 (inhibits 50% of settlement of cyprids in comparison with the control) was calculated using the Probit software program.

C. vulgaris = test: as above; type: cell-based, Chlorella vulgaris; conditions: 48 h, read-out: EC50 C. vulgaris
Protocol: as §1

N. laevissima = test: as above; type: cell-based, Navicula laevissima; conditions: 48 h, read-out: EC50 N. laevissima
Protocol: as §1

C. socialis = test: as above; type: cell-based, Chaetoceros socialis; conditions: 48 h, read-out: EC50 C. socialis
Protocol: as §1

N. exigua = test: as above; type: cell-based, Navicula exigua
Protocol: as §1

[2] = system: P. tricornutum Bohlin, C. vulgaris, C. socialis, N. laevissima, and N. exigua; test: Diatom growth inhibition assay, whole panel; type: cell-based; conditions: Chlorella vulgaris; selective and moderate activities; read-out: EC50 antialgal, range over compounds and algae
Protocol: as §1

[3] = In vitro cytotoxicity (CC50); type: cell-based; conditions: human, HUVEC cells
From the text: Toxicity is a major concern of drug discovery and development, and the selectivity index (SI) is used as the evaluation parameter of drug potential of the test samples by comparing the toxicity on a human cell line (CC50) and the selective inhibitory effect on P. falciparum (IC50) calculated here as CC50/IC50. We decided to evaluate in vitro cytotoxicity of the active derivatives 38, 39, 50, 52, 65, 67, 70, and 71 by determining their 50% cytotoxic concentrations. The results are presented in Table 3, presenting only those CC50 values > 100 μmol/L, reaching selectivity indexes > 10. The cytotoxic concentration at 150 μmol/L was not be determined because of a lack of solubility of the tested molecule in the culture medium. Moreover, the toxicity of these derivatives was also evaluated against two other cell lines: hepatocellular liver carcinoma cell line (Hep G2) and cervical carcinoma (HeLa), finding CC50 values > 100 μmol/L.

[4] = Phaeodactylum tricornutum, chlorophyll a of attached microalgae
[5] = Chlorella vulgaris, chlorophyll a of attached microalgae
[6] = Sellaphora laevissima, chlorophyll a of attached microalgae
[7] = Chaetoceros socialis, chlorophyll a of attached microalgae
[8] = 48 h, chlorophyll a of attached microalgae, read-out: EC50 N. exigua
[9] = chlorophyll a of attached microalgae
[10] = Erythrocyte, HB3 strain in human erythrocytes, read-out: P. falciparum IC50
[11] = 48 h, chlorophyll a of attached microalgae; read-out: EC50 N. exigua

Row | Structure (SMILES) | EC50 (P. tricornutum Bohlin; [4]) [µM] | EC50 (C. vulgaris; [5]) [µM] | EC50 (N. laevissima; [6]) [µM] | EC50 (C. socialis; [7]) [µM] | EC50 (N. exigua; [8]) [µM] | EC50 [2] [µM] | IC50 [1, 10] [µM] | other results
1 | CCN(CC)CCCC(C)Nc1ccnc2cc(Cl)ccc12 (stereo not drawn) [Chloroquine, reference compound] |  |  |  |  |  |  |  | IC50 ([1]; HB3, Erythrocyte, read-out: P. falciparum IC50): 37.9 µM; IC50 ([1]; HB3, read-out: P. falciparum IC50 (positive control, methods)): 0.0329 µM
2 | COc1cc(O)c2c(c1)/C=C/C[C@H](O)[C@H](O)[C@@H](O)/C=C/C[C@H](C)OC2=O [Compound 1, zeaenol] |  |  |  |  |  |  |  | EC50 (P. tricornutum Bohlin; Phaeodactylum tricornutum): 12.6 µM; EC50 (C. vulgaris; Chlorella vulgaris): > 10 µM; EC50 (N. laevissima; Sellaphora laevissima): 8.79 µM; EC50 (C. socialis; Chaetoceros socialis): 25.4 µM; EC50 (N. exigua; 48 h, read-out: EC50 N. exigua): 23.9 µM
3 | COc1cc(OC(=O)C(C)(C)C)c2c(c1Cl)C=CCC(O)C(O)C(O)C=CCC(C)OC2=O (stereo not drawn) [Compound 3] | 22.3 | 30.9 | > 10 | > 10 | > 10 | 11 to 32.5 |  | 
4 | COc1cc2c(c(OCc3ccccc3)c1)C(=O)OC(C)CC=CC(O)C(O)C(O)CC=C2 (stereo not drawn) [Compound 4] | 21 | > 10 | 13.6 | > 10 | 11 | 11 to 32.5 |  | 
5 | COc1cc2c(c(OCc3ccccc3Br)c1)C(=O)OC(C)CC=CC(O)C(O)C(O)CC=C2 (stereo not drawn) [Compound 9] | < 10 | > 10 | < 10 | < 10 | 19.2 |  |  | EC50 (P. tricornutum Bohlin; [9]): 6.99 µM; EC50 (N. laevissima; [9]): 6.67 µM; EC50 (C. socialis; [9]): 9 µM
6 | COc1cc(COc2cc(OC)cc3c2C(=O)OC(C)CC=CC(O)C(O)C(O)CC=C3)cc(OC)c1 (stereo not drawn) [Compound 12] | 32.5 | > 10 | 20 | > 10 | > 10 | 11 to 32.5 |  | 
7 | COc1cc(COc2cc(OC)c(Cl)c3c2C(=O)OC(C)CC=CC(O)C(O)C(O)CC=C3)cc(OC)c1 (stereo not drawn) [Compound 13] | 14 | > 10 | 16.9 | 24 | > 10 | 11 to 32.5 | 12.6 | antiplasmodial activity against P. falciparum (in words) [1]: active
8 | COc1cc2c(c(OCc3cc(F)cc(F)c3)c1)C(=O)OC(C)CC=CC(O)C(O)C(O)CC=C2 (stereo not drawn) [Compound 15] | 33.1 | > 10 | > 10 | 15 | 18.8 | 11 to 32.5 |  | 
9 | COc1cc2c(c(OCc3ccc(Br)cc3F)c1)C(=O)OC(C)CC=CC(O)C(O)C(O)CC=C2 (stereo not drawn) [Compound 24] | 11.2 | > 10 | 22.4 | > 10 | 10.2 | 11 to 32.5 |  | 
10 | CCC(=O)Oc1cc(OC)cc2c1C(=O)OC(C)CC=CC1OC(C)(C)OC1C(O)CC=C2 (stereo not drawn) [Compound 30] |  |  |  |  |  |  | 12.4 | antiplasmodial activity against P. falciparum (in words) [1]: moderate activity
11 | COCC(=O)Oc1cc(OC)cc2c1C(=O)O[C@@H](C)C/C=C/[C@H](O)[C@@H](O)[C@@H](O)C/C=C/2 [Compound 34] | 16.2 | 12.1 | 8.55 | > 10 | 8.76 |  |  | antiplasmodial activity against P. falciparum (in words) [1]: moderate activity; EC50 (N. laevissima; [9]): 8.76 µM; EC50 (N. exigua; [11]): 8.55 µM
12 | COCC(=O)Oc1cc(OC)c(Cl)c2c1C(=O)OC(C)CC=CC1OC(C)(C)OC1C(OC(=O)COC)CC=C2 (stereo not drawn) [Compound 35] |  |  |  |  |  |  | 11.6 | 
13 | COc1cc2c(c(OCc3ccc(C(F)(F)F)cc3)c1)C(=O)OC(C)CC=CC1OC(C)(C)OC1C(O)CC=C2 (stereo not drawn) [Compound 45] | > 10 | 13 | 27.4 | > 10 | 18.3 | 11 to 32.5 |  | 
14 | COc1cc(COc2cc(OC)c(Cl)c3c2C(=O)OC(C)CC=CC2OC(C)(C)OC2C(O)CC=C3)cc(OC)c1 (stereo not drawn) [Compound 50] |  |  |  |  |  |  | 7.82 | P. falciparum SI, Selectivity Index (CC50/IC50) [1]: > 12; antiplasmodial activity against P. falciparum (in words) [1]: active; CC50 [3]: > 100 µM
15 | COC(=O)c1ccc(COc2cc(OC)c(Cl)c3c2C(=O)OC(C)CC=CC2OC(C)(C)OC2C(O)CC=C3)cc1 (stereo not drawn) [Compound 52] |  |  |  |  |  |  | 9.72 | P. falciparum SI, Selectivity Index (CC50/IC50) [1]: > 10; CC50 [3]: > 100 µM
16 | [2H]C([2H])([2H])C1(C([2H])([2H])[2H])OC2C=CCC(C)OC(=O)c3c(cc(OC)cc3OCc3ccccc3Br)C=CCC(O)C2O1 (stereo not drawn) [Compound 58] | 28.2 | 15.9 | > 10 | > 10 | 20.1 | 11 to 32.5 |  | 
17 | [2H]C([2H])([2H])C1(C([2H])([2H])[2H])OC2C=CCC(C)OC(=O)c3c(cc(OC)cc3OCc3cccc(F)c3)C=CCC(O)C2O1 (stereo not drawn) [Compound 60] |  |  |  |  |  |  |  | antiplasmodial activity against P. falciparum (in words) [1]: active
18 | [2H]C([2H])([2H])C1(C([2H])([2H])[2H])OC2C=CCC(C)OC(=O)c3c(cc(OC)cc3OCc3cccc(C)c3)C=CCC(O)C2O1 (stereo not drawn) [Compound 62] | > 10 | 16.3 | > 10 | 25.8 | 14.2 | 11 to 32.5 |  | 
19 | [2H]C([2H])([2H])C1(C([2H])([2H])[2H])OC2C=CCC(C)OC(=O)c3c(cc(OC)cc3OCc3ccc(-c4ccccc4C#N)cc3)C=CCC(O)C2O1 (stereo not drawn) [Compound 65] |  |  |  |  |  |  | 7.82 | P. falciparum SI, Selectivity Index (CC50/IC50) [1]: > 12; CC50 [3]: > 100 µM
20 | CCC(=O)Oc1cc(OC)cc2c1C(=O)OC(C)CC=CC(OC(=O)CC)C(OC(=O)CC)C(OC(=O)CC)CC=C2 (stereo not drawn) [Compound 69] |  |  |  |  |  |  | 9.18 | 
21 | CCCCCCCCn1sc(Cl)c(Cl)c1=O [SeaNine 211, reference compound] |  |  |  |  |  |  |  | EC50 (P. tricornutum Bohlin; [9]): 0.74 µM; EC50 (C. vulgaris; [9]): 6.52 µM; EC50 (N. laevissima; [9]): 2.9 µM; EC50 (C. socialis; [9]): 1.87 µM; EC50 (N. exigua; [11]): 9.74 µM and 9.47 µM

— article PMC10077203, “Structure modification, antialgal, antiplasmodial, and toxic evaluations of a series of new marine-derived 14-membered resorcylic acid lactone derivatives” (Marine Life Science & Technology, 2021)
